According to patent publication US20180296456A1, “Decapeptide-12 Modulation of Sirtuin Gene Expression in Epidermal Keratinocyte Progenitors” (Escape Therapeutics, Inc., priority 2017, published 2018):
Peptide text beside a SMILES is read from it.

Columns and labels:
SIRT1 = SIRT1 transcription, semi-quantitative RT-PCR in human epidermal progenitors; format: cell-based; conditions: 72 h
Experimental: (§1) Human neonatal epidermal progenitors (Thermo Fisher Scientific, NY) were seeded in 6-well plates at a density of 2×10^5 cells/well. Each well received 2 ml of Epilife media containing 60 μM calcium chloride (Thermo Fisher Scientific, NY). Plates were incubated in a humidified chamber at 37 degrees Celsius and 5 percent CO2. Twenty-four hours later, cells were treated with various concentrations of oxyresveratrol or decapeptide-12 dissolved in PBS containing 5 percent DMSO. Control wells received vehicle only (5 percent DMSO and PBS). Final concentration of DMSO in each well was 0.05 percent.
(§2) After a 72 hour incubation period, cells were trypsinized and total RNA extracted, using RNeasy kit (Qiagen, Valencia, Calif.) according to the manufacturer's protocol.
(§3) RNA concentration was determined using nanodrop (Thermo fisher scientific, NY). Two μg of total RNA were used to synthesize cDNA using oligo dT primers and TaqMan reverse transcription reagents (Thermo fisher scientific, NY). The reaction was carried out in DNA Engine Peltier Thermal Cycler (Bio-Rad, Hercules, Calif.). The annealing temperature was 25 degrees Celsius for 10 minutes, followed by first strand synthesis at 48 degrees Celsius for 1 hour, and heat inactivation at 95 degrees Celsius for 5 minutes.
(§4) The SIRT1-7 primers (table 1) were designed using Primer3. The semi-quantitative PCR reactions were performed on a DNA Engine Peltier Thermo Cycler (Bio-Rad, Hercules, Calif.). PCR was carried under the following conditions: denaturation at 94 degrees Celsius for 2 minutes and primer extension at 54 degrees Celsius for 30 seconds in 34 cycles for SIRT 1-7 and the housekeeping gene 18S.
(§5) Samples were run and resolved on a 1.5 percent agarose gel containing 0.5 μg/ml of ethidium bromide and imaged using the FluorChem HD2 Imaging System (Protein simple, San Jose, Calif.). Densitometry analysis was carried out using the AlphaEase FC software (Protein simple, San Jose, Calif.). Intensity ratios were calculated as the intensity value for each gene divided by the intensity value of the internal control gene 18S.
(§6) The effect of the decapeptides P4, P4A, P4B, and P4C upon the transcription levels of sirtuins 1-7 was evaluated. Table 4 summarizes transcription levels for all four decapeptides with the corresponding genes, at tested concentrations of: 10, 30, 50, 100, and 300 (all in μM).

SIRT2 = SIRT2 transcription, semi-quantitative RT-PCR in human epidermal progenitors; format: cell-based; conditions: 72 h
Experimental: as §1, §2, §3, §4, §5, §6

SIRT4 = SIRT4 transcription, semi-quantitative RT-PCR in human epidermal progenitors; format: cell-based; conditions: 72 h
Experimental: as §1, §2, §3, §4, §5, §6

SIRT5 = SIRT5 transcription, semi-quantitative RT-PCR in human epidermal progenitors; format: cell-based; conditions: 72 h
Experimental: as §1, §2, §3, §4, §5, §6

SIRT6 = SIRT6 transcription, semi-quantitative RT-PCR in human epidermal progenitors; format: cell-based; conditions: 72 h
Experimental: as §1, §2, §3, §4, §5, §6

SIRT7 = SIRT7 transcription, semi-quantitative RT-PCR in human epidermal progenitors; format: cell-based; conditions: 72 h
Experimental: as §1, §2, §3, §4, §5, §6

in vitro = format: cell-based; conditions: human, human epidermal progenitors
Experimental: Proliferation rates were determined using a TACS® MTT Cell Proliferation Kit (R&D systems, Minneapolis, Minn.). Cells were seeded at 2.5×10^4/well in 96-well plates in a humidified atmosphere with 5 percent CO2 at 37 degrees Celsius. Twenty-four hours later, decapeptide-12 or oxyresveratrol were added to the corresponding wells at varying concentrations (0, 3, 10, 30, 100, 300, and 1000 μM), and cultures were then incubated for 72 hours. The remainder of the procedure was performed following the manufacturer's protocol.
(§7) Proliferation rates for three human cell lines (epidermal progenitors, melanoblasts, and fibroblasts) were determined using a TACS® MTT Cell Proliferation Kit. Cells were seeded at 2.5×10^4/well in 96-well plates in a humidified atmosphere with 5 percent CO2 at 37 degrees Celsius. Twenty-four hours later, the decapeptides were added to the corresponding wells at varying concentrations and incubated for 72 hours. The remainder of the procedure was performed following the manufacturer's protocol.

[1] = MTT cell proliferation assay, melanoblasts; format: cell-based, human; conditions: human, MTT, 72 h, read-out: melanoblast proliferation rate after 72 hours
Experimental: as §7

[2] = Trypan blue cell viability, 7 days, fibroblasts; format: cell-based; conditions: human, relative to control, read-out: fibroblast viability after 7 days
Experimental: The effect of each of the decapeptides upon cell viability was also tested. In particular, cells were incubated with the decapeptide at various concentrations and then counted for viability relative to the control (untreated cells) using trypan blue. Cytotoxicity was measured according to the following formula:
[1−(# of cells in control−# of live cells in test sample)/# of cells in control]×100 percent.

Structure (SMILES): CCCCCCCCCCCCCCCC(=O)N[C@@H](Cc1ccc(O)cc1)C(=O)N[C@@H](CCCNC(=N)N)C(=O)N[C@@H](CO)C(=O)N[C@@H](CCCNC(=N)N)C(=O)N[C@@H](CCCCN)C(=O)N[C@H](Cc1ccc(O)cc1)C(=O)N[C@@H](CO)C(=O)N[C@@H](CO)C(=O)N[C@@H](Cc1c[nH]c2ccccc12)C(=O)N[C@@H](Cc1ccc(O)cc1)C(N)=O [P4B, Palmitoyl-YRSRK[*Y]SSWY-amide] (HELM PEPTIDE1{[CCCCCCCCCCCCCCCC(=O)[*:2]].Y.R.S.R.K.[dY].S.S.W.Y.[am]}$$$$V2.0)
- SIRT1 transcription increase relative to control (SIRT1; 10 μM): 10 ± 4%
- SIRT1 transcription increase relative to control (SIRT1; 30 μM): 10 ± 3%
- SIRT1 transcription increase relative to control (SIRT1; 50 μM): 48 ± 3%
- SIRT1 transcription increase relative to control (SIRT1; 100 μM): 135 ± 12%
- SIRT1 transcription increase relative to control (SIRT1; 300 μM): 155 ± 3%
- SIRT2 transcription increase relative to control (SIRT2; 10 μM): 5 ± 1%
- SIRT2 transcription increase relative to control (SIRT2; 30 μM): 8 ± 3%
- SIRT2 transcription increase relative to control (SIRT2; 50 μM): 17 ± 6%
- SIRT2 transcription increase relative to control (SIRT2; 100 μM): 52 ± 4%
- SIRT2 transcription increase relative to control (SIRT2; 300 μM): 40 ± 4%
- SIRT4 transcription increase relative to control (SIRT4; 10 μM): 9 ± 1%
- SIRT4 transcription increase relative to control (SIRT4; 30 μM): 10 ± 1%
- SIRT4 transcription increase relative to control (SIRT4; 50 μM): 17 ± 1%
- SIRT4 transcription increase relative to control (SIRT4; 100 μM): 86 ± 6%
- SIRT4 transcription increase relative to control (SIRT4; 300 μM): 49 ± 4%
- SIRT5 transcription increase relative to control (SIRT5; 10 μM): 2.00%
- SIRT5 transcription increase relative to control (SIRT5; 30 μM): 1.00%
- SIRT5 transcription increase relative to control (SIRT5; 50 μM): 1.00%
- SIRT5 transcription increase relative to control (SIRT5; 100 μM): 35 ± 3%
- SIRT5 transcription increase relative to control (SIRT5; 300 μM): 29 ± 5%
- SIRT6 transcription increase relative to control (SIRT6; 10 μM): 21 ± 5%
- SIRT6 transcription increase relative to control (SIRT6; 30 μM): 22 ± 4%
- SIRT6 transcription increase relative to control (SIRT6; 50 μM): 10 ± 4%
- SIRT6 transcription increase relative to control (SIRT6; 100 μM): 107 ± 2%
- SIRT6 transcription increase relative to control (SIRT6; 300 μM): 81 ± 4%
- SIRT7 transcription increase relative to control (SIRT7; 10 μM): 20 ± 6%
- SIRT7 transcription increase relative to control (SIRT7; 30 μM): 23 ± 5%
- SIRT7 transcription increase relative to control (SIRT7; 50 μM): 54 ± 7%
- SIRT7 transcription increase relative to control (SIRT7; 100 μM): 61 ± 7%
- SIRT7 transcription increase relative to control (SIRT7; 300 μM): 103 ± 8%
- viability at 72 h, 3 µM (in vitro): 99 ± 1%
- viability at 72 h, 10 µM (in vitro): 99 ± 1%
- viability at 72 h, 30 µM (in vitro): 98 ± 1%
- viability at 72 h, 50 µM (in vitro): 98 ± 1%
- viability at 72 h, 100 µM (in vitro): 97 ± 1%
- viability at 72 h, 300 µM (in vitro): 97 ± 1%
- viability at 72 h, 500 µM (in vitro): 95 ± 2%
- viability at 72 h, 1000 µM (in vitro): 94 ± 2%
- viability at 72 h, 3 µM ([1]; 3 μM): 100%
- viability at 72 h, 10 µM ([1]; 10 μM): 100%
- viability at 72 h, 30 µM ([1]; 30 μM): 99 ± 1%
- viability at 72 h, 50 µM ([1]; 50 μM): 98 ± 1%
- viability at 72 h, 100 µM ([1]; 100 μM): 97 ± 2%
- viability at 72 h, 300 µM ([1]; 300 μM): 96 ± 2%
- viability at 72 h, 500 µM ([1]; 500 μM): 95 ± 2%
- viability at 72 h, 1000 µM ([1]; 1000 μM): 94 ± 2%
- viability at 168 h, 3 µM ([2]; 3 μM): 100%
- viability at 168 h, 10 µM ([2]; 10 μM): 98.8 ± 1%
- viability at 168 h, 30 µM ([2]; 30 μM): 98.3 ± 1%
- viability at 168 h, 50 µM ([2]; 50 μM): 97.6 ± 1%
- viability at 168 h, 100 µM ([2]; 100 μM): 97.3 ± 2%
- viability at 168 h, 300 µM ([2]; 300 μM): 96.5 ± 2%
- viability at 168 h, 500 µM ([2]; 500 μM): 95.3 ± 3%
- viability at 168 h, 1000 µM ([2]; 1000 μM): 94.2 ± 3%
